For series [1] the following is noted: for pPb (pM), -log [Pb]free: [Pb]tot = 10^-6 M, [L]tot = 10^-5 M; for pPb (pM), -log [Pb]free / log K'Pb (conditional stability constant): pH 7.4, 25 °C, I = 0.1 M.
The nature of series [2]: Chelator protonation constants by pH potentiometry. The following applies: I = 0.1 M KCl, 25 °C. It is filed as physicochemical.
A short description of series [3]: Non-radioactive Pb2+ challenge. It is filed as physicochemical. The following applies: 20-fold excess non-radioactive Pb, after 72 hours; 203Pb complex.
Series [4] can be described thus: EDTA challenge. The class given is physicochemical. To be noted: 20-fold excess EDTA, after 72 hours; 203Pb complex.
For series [5] the following is noted: cited from earlier work.
The conditions of series [6]: Pb2+ complex, cited from earlier work.
The conditions of series [7]: pH 7.4.
[8] abbreviates: Pb2+ complex, I = 0.1 M KCl, 25 °C.

The structures appear in SMILES notation. Where two headings read alike, the source gives them in different places.

For `c1ccc(CN2CCOCCN(Cc3ccccn3)CCN(Cc3ccccn3)CCOCCN(Cc3ccccn3)CC2)nc1` [Crown-4Py, 4,7,13,16-tetrakis(pyridin-2-ylmethyl)-1,10-dioxa-4,7,13,16-tetraazacyclooctadecane], in series [1] (setting [8]), the “log KPbH2L” value is recorded as 3.50(8); the “log KPbHL” value is 5.22(1); the “log KPbL (thermodynamic stability constant, log KML)” value (“log KPbL” for short) is 13.29(5). Also, in series [1], the “pPb (pM), -log [Pb]free” value is 13.40 and the “log K'Pb (conditional stability constant)” value (shortened to “log K'Pb”) is reported as 12.45. Besides, in series [2], the “log K1 (protonation constant)” value is on record as 7.91(4), the “log K2 (protonation constant)” value is 7.33(4), the “log K3 (protonation constant)” value is reported as 4.64(1) and the “log K4 (protonation constant)” value was 4.00(6).

On to `c1ccc(CN2CCN(Cc3ccccn3)CCN(Cc3ccccn3)CCN(Cc3ccccn3)CC2)nc1` [Cyclen-4Py, 1,4,7,10-tetrakis(pyridin-2-ylmethyl)-1,4,7,10-tetraazacyclododecane], for which the “complex remained intact, non-radioactive Pb2+ challenge” value in series [3] was 98.0 ± 0.4%. In series [1] (setting [8]), the “log KPbHL” value is recorded as 2.06(9) and the “log KPbL” value was 19.95(3). Moreover, in series [1], the “pPb (pM), -log [Pb]free” value amounted to 17.88 and the “log K'Pb” value was found to be 16.93. Further, the “complex remained intact, EDTA challenge” value in series [4] came to 98.1 ± 0.5%. Further, in series [2], the “log K1 (protonation constant)” value is 10.05(4), the “log K2 (protonation constant)” value is 7.53(2), the “log K3 (protonation constant)” value is listed as 3.54(7) and the “log K4 (protonation constant)” value is 2.23(6).

Turning to `O=C(O)CN1CCN(CC(=O)O)CCN(CC(=O)O)CCN(CC(=O)O)CC1` [DOTA, 1,4,7,10-tetraazacyclododecane-1,4,7,10-tetraacetic acid], in series [5] (I = 0.1 M Me4NNO3), the “log K1 (protonation constant)” value is 12.09, the “log K2 (protonation constant)” value is 9.76, the “log K3 (protonation constant)” value is recorded as 4.559 and the “log K4 (protonation constant)” value is 4.09. Moreover, in series [6] (I = 0.1 M NaCl), the “log KPbL” value is 25.3(1)[39]. Besides, the “log K'Pb” value in series [7] turned out to be 15.64.

As to `NC(=O)CN1CCN(CC(N)=O)CCN(CC(N)=O)CCN(CC(N)=O)CC1` [DOTAM, 1,4,7,10-tetrakis(carbamoylmethyl)-1,4,7,10-tetraazacyclododecane], in series [5] (I = 0.1 M NaNO3), the “log K1 (protonation constant)” value is on record as 7.70(1) and the “log K2 (protonation constant)” value was 6.21(1). For the same compound, in series [6] (I = 0.1 M NaNO3), the “log KPbL” value is listed as more than 19.

With `c1ccc(CN2CCOCCOCCN(Cc3ccccn3)CCOCCOCC2)nc1` [NOON-2Py, 7,16-bis(pyridin-2-ylmethyl)-1,4,10,13-tetraoxa-7,16-diazacyclooctadecane], in series [5] (I = 0.1 M KCl), the “log K1 (protonation constant)” value is given as 7.44, the “log K2 (protonation constant)” value is on record as 6.26 and the “log K3 (protonation constant)” value is 1.38. For the same compound, in series [1], the “pPb (pM), -log [Pb]free” value is 12.29 and the “log K'Pb” value amounted to 11.33. In addition, in series [6] (I = 0.1 M KCl), the “log KPbL” value was 11.67.

Values taken from publication PMC9366509 (Inorganic chemistry, 2022).
